Entries after “also recorded” stand apart in the source; their conditions may differ.
Key:
[1] = test system: glioma cell lines A172, U87MG and T98G; experiment: BCNU crystal violet viability test in glioma cell lines; assay type: cell-based; settings: BCNU 5-80 μg/ml, 2 hrs; viability 48 hrs later; p<0.001
Experimental: (§1) Various glioma cell lines (A172, U87MG, and T98G) or HEK293 were transiently transfected with different plasmids as indicated above. For the BG-treated groups, BG (Benzyl Guanine, an MGMT inhibitor) was added to the cell medium 4-6 hrs after transfection at a final concentration of 80 μM and incubated with the cells for the duration of the experiment. At 24 hrs following transfection, the cells were exposed for 2 hrs to increasing concentrations of BCNU (as indicated), which is a β-chloro-nitrosourea compound used as an alkylating agent in chemotherapy. The cells were fixed 48 hrs later with 4% paraformaldehyde for 20 min at room temperature, and washed twice with PBS. A 400 μl volume of 0.5% crystal violet in dH2O was added and the cells were stained for 15 min on a vibrator at 300 rpm. The dye was aspirated, the wells rinsed with dH2O, and the plate was allowed to dry in the hood. For destaining, 400 μl of 10% acetic acid were added to each well and the cells were incubated for 15 min on a vibrator at 300 rpm. The optical density (OD590) of the de-stained solution in each well was read and recorded.
(§2) To determine whether this also results in induction of cellular resistance to alkylating agents, the sensitivity of the three glioma cell lines to increasing quantities of BCNU (5-80 μg/ml), was next compared. […]

[2] = test system: MGMT-kB1-Luc reporter construct induced by NF-κB/p65; experiment: Luciferase reporter assay, MGMT-kB1-Luc co-transfected with NF-κB/p65; assay type: cell-based, human; settings: for effect on luciferase activity driven by MGMT-kB1 reporter (in words): HEK293T co-transfected with MGMT-kB1 reporter and NF-κB/p65
Experimental: (§3) Transient transfections were performed in 6-well plates, using the FuGene6 transfection reagent (Roche Diagnostics GmbH, Mannheim, Germany), according to the manufacturer's instructions. U87MG, T98G, and A172 cells were transfected with pNF-κB-Luc reporter Vector (Clontech, Palo Alto, Calif.), while RG2 and U87MG were transfected with MGMT-Luc [construct p-954/+24 mL [Biswas T. et al. Oncogene 18:525-32 (1999)] kindly provided by Sankar Mitra] (1 μg/well). CMVβ-galactosidase expression vector (CMVβgal-Clonthech) was included (0.1 μg/well) in each transfection to normalize transfection efficiency. HEK293 cells were transfected with CMVβgal alone or along with one or more of the following plasmids: CMVp65, CMVΔNIκB, CMVp50, CMVcJun. CMVp65 and CMVΔNIκB plasmids were kindly provided by Prof. Yinon. Ben-Neriah (The Hebrew University, Jerusalem, Israel), CMVp50 and CMVcJun were kindly provided by Dr. Danielle Melloul (Hadassah Hebrew University Medical Center, Jerusalem, Israel).
At 24 hrs following transfection, the cells were lysed for 15 min on ice with 200 μl of luciferase lysis buffer (Promega, Madison, Wis.). Luciferase assays were carried out using a Promega assay kit and a luminometer (EG&G Berthold, Bad Wildbad, Germany). The activity was normalized to β-galactosidase activity (Promega) and plotted as the mean±s.d. of triplicates from a representative experiment.
For the cloning of the MGMT-luc constructs the reporter vector p-TA-Luc (Clontech, Palo Alto, USA) was used. The plasmid contains TATA box motif upstream to a luciferase reporter gene. A double stranded DNA corresponding to four repeats of each sequence as indicated by FIG. 8A (also denoted by SEQ ID NO. 44, 45, 46 and 47), was synthesis by syntezza LTD and ligated upstream to the TATA box.
To test the activity of these sites, several luciferase reporter genes bearing four copies of either intact or mutant sequence, of each of the two NF-κB sites (NF-κB1 and NF-κB2), were constructed as indicated in Experimental procedures. […] An inhibition of approximately 50% was observed using 100 nM ODN. Negative control using the CMVΔNIκB (ΔN)-Luc construct as well as positive control using the canonical HIV-κB-Luc reporter construct, confirmed validity of the data.
Induction of over expression of NF-κB in HEK 293T cells by transfection of a CMV-NF-κB/p65 generated a 50-fold elevation in luciferase expression driven by the Co-transfected reporter construct MGMT-kB1-Luc. […] Inhibition of approximately 90% was induced by 150 nM LMODN. […] No inhibition was detected when a mutant LMODN was introduced into the cells, indicating the specificity of MGMT-kB1-LMODN (of SEQ ID NO. 40 and 41). […] 3 (HIV-κB-Luc construct).

T98MG gliomas cell line [3] = assay type: cell-based, human
Experimental: (§4) T98MG glioma cell line cells were treated with increasing doses of the decoy ODN's of the invention. Double stranded ODNs (30mers), corresponding to MGMT-κB1 binding site (as also denoted by SEQ. ID. NO. 1), and control ODNs were purchased from IDT. Each strand of ODN was thirty-mers and contained six LNA nucleotides. The following ODNs were used: MGMT-kB1forward: 5′---+T+AATGGGG+ACTTTAC GGG+[…]+A+T---3′ (as also denoted by SEQ. ID. NO. 40) with or without the 5′ end labeled with carboxyfluorescein-5-succimidyl ester (FAM). The MGMT-kB1 reverse ODN: 5′---+A+TTCTGTA+[…]+[…]+T+A---3′ as also denoted by SEQ ID NO. 41). Control forward: 5′---+T+AG TGT CG+A CTT CAC TCT+ACT TGA CAG A+A+T---3′ (as also denoted by SEQ ID NO. 42), control reverse: 5′---+A+TT CTG TC+A AGT AGA GTG+AAG TCG ACA C+T+A---3′ as also denoted by SEQ ID NO. 43). It should be noted that (+designated as nucleotide containing an LNA modification).
(§5) The viability of the cells was tested 24-48 hrs later by CellTiter-Blue assay (Promega®). The assay was carried out according to the supplier's instructions. Briefly, the assay is based on the ability of living cells to convert a redox dye (resazurin) into a fluorescent end product (resorufin). Cell viability estimation is done by measuring the fluorescent intensity of resorufin (ex. 560 nm, em. 590 nm) using a fluorescent microplate reader.
The inventors next tested the potential of the decoy LMODN molecules of the invention to sensitize tumor cells to alkylating agents and thereby improve their efficacy as anti-cancerous treatment. Therefore, several human cancer cell lines were treated with alkylating agents with increasing doses of MGMT-kB1-ODN followed by cell viability tests. First, the sensitivity of each cell line to several alkylating agents, mainly temozolomide (TMZ) and BCNU was calibrated. At 24 hrs following sowing, cells were exposed for two hours to increasing concentrations of the alkylating agent and viability of the cells was tested 24-48 hrs later by CellTiter-Blue assay (Promega®). To test the potential of MGMT-kB1-LMODN to sensitize tumor cells to alkylating agents in-vitro, increasing doses of LMODNs MGMT-kB1 forward and reverse as denoted by SEQ ID NO. 40 and 41, respectively), with or without the 5′ end labeled with carboxyfluorescein-5-succimidyl ester (FAM), as well as the control LMODNs (as denoted by SEQ ID NO. 42 and 43), were liposomally introduced (Lipofectamine 2000, Invitrogen) to various tumor cancer cells. Twenty four hours later, cells were treated with the different doses of alkylating agents as calibrated before.
FIG. 9 represents an example of T98MG gliomas cell line sensitized to alkylating agents in response to treatment with the LMODN's of the invention. […]

T98MG gliomas cell line [4] = assay type: cell-based, human; settings: corresponding concentrations, 48 hours
Experimental: as §4
as §5, with “reader. […]” for “reader.”

[5] = test system: canonical NF-κB binding site from HIV (HIV-κB-Luc construct); experiment: Luciferase reporter assay, HIV-κB-Luc construct induced by p65; assay type: cell-based, human; settings: 150 nm LMODN
Experimental: as §3, with “Israel). […]” for “Israel).”
Induction of over expression of NF-κB in HEK 293T cells by transfection of a CMV-NF-κB/p65 generated a 50-fold elevation in luciferase expression driven by the Co-transfected reporter construct MGMT-kB1-Luc. […] No inhibition was detected when a mutant LMODN was introduced into the cells, indicating the specificity of MGMT-kB1-LMODN (of SEQ ID NO. 40 and 41). […]

HEK293 cells = experiment: BG and BCNU treatment, crystal violet viability test in transfected HEK293; assay type: cell-based, human; settings: BG 80 μM added 4-6 hrs after transfection; control and p65 transfected HEK293; BCNU 20-80 μg/ml 2 hrs
Experimental: as §1, §2

O=NN(CCCl)C(=O)NCCCl [BCNU, 1,3-bis(2-chloroethyl)-1-nitrosourea]
resistance of T98G to BCNU compared with A172 and U87MG (in words) [1]: more resistant

mMGMT-kB1-LMODN: mutant control LNA modified ODN; control forward SEQ ID NO. 42, control reverse SEQ ID NO. 43 (sense TAGTGTCGACTTCACTCTACTTGACAGAAT; antisense ATTCTGTCAAGTAGAGTGAAGTCGACACTA; LNA modified, positions not given here; listed as Homo sapiens) [mutant control LNA modified ODN; 43]
effect on luciferase activity driven by MGMT-kB1 reporter (in words) [2]: No inhibition
additive effect with TMZ (in words) (T98MG gliomas cell line [3]; 2.5 mM TMZ with mutant LMODN (FIG. 9)): no any additive effect
effect on cell survival (in words) (T98MG gliomas cell line [4]): no reduction in cell survival

MGMT-kB1-LMODN: double stranded 30-mer LNA modified decoy ODN of MGMT-κB1 site; forward SEQ ID NO. 40, reverse SEQ ID NO. 41 (sense TAATGGGGACTTTACGGGACTTTACAGAAT; antisense ATTCTGTAAAGTCCCGTAAAGTCCCCATTA; LNA modified, positions not given here; listed as Homo sapiens) [double stranded 30-mer LNA modified decoy ODN of MGMT-κB1 site; 41]
inhibition of luciferase activity ([2]; 150 nM LMODN, liposomal, HEK 293T, MGMT-kB1-Luc + NFκB/p65 (FIG. 8)): approximately 90%
effect on luciferase activity driven by MGMT-kB1 reporter (in words) [2]: inhibited the luciferase activity in a dose-dependent manner
inhibitory activity relative to NF-κB super repressor ΔNI-κB ([2]; LMODN at 150 nM): two fold greater
inhibition of p65-induced luciferase expression [5]: 57%
toxicity to cells, viability of cells treated only with the LMODN (T98MG gliomas cell line [3]): not toxic to the cells
live cells (T98MG gliomas cell line [3]; 2.5 mM TMZ with 2 nm LMODN): 22%

Nc1nc(OCc2ccccc2)c2nc[nH]c2n1 [BG, O6-Benzylguanine]
effect of BG on sensitivity to BCNU (in words) (HEK293 cells): augmented the cell sensitivity to BCNU; also recorded: completely abrogated the p65-induced chemoresistance

Reference: patent US8299237B2, “Nucleic acid sequences comprising NF-κB binding site within O(6)-methylguanine-DNA-methyltransferase (MGMT) promoter region and uses thereof for the treatment of cancer and immune-related disorders” (Hadasit Medical Research Services & Development Ltd., priority 2007, dated 2012)
